Results published in ChEMBL document CHEMBL1132038, “L-770,644: a potent and selective human beta3 adrenergic receptor agonist with improved oral bioavailability” (Bioorg Med Chem Lett, 1999).

Experiments:
[1] = molecular target: T1, Beta-2 adrenergic receptor (Homo sapiens, UniProt P07550); test: Adenylyl cyclase activation expressed as percent of maximal stimulation with isoproterenol at the cloned human Beta-2 adrenergic receptor at 10 uM; assay type: functional
Target sequence in this assay (P07550 whole entry, looked up): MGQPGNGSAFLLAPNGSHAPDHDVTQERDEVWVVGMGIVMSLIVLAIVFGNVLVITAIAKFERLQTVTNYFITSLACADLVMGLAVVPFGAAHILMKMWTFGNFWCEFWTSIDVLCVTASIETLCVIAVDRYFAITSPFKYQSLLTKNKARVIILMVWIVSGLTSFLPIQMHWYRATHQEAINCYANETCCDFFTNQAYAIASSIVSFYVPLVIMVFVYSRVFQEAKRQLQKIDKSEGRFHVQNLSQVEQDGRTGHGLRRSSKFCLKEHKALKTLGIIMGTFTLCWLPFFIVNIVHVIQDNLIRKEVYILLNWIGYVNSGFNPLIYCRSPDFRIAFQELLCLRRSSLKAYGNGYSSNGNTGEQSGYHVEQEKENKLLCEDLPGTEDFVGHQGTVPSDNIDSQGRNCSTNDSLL

[2] = molecular target: T2, Beta-3 adrenergic receptor (Homo sapiens, UniProt P13945); test: Agonistic activity against the cloned human Beta-3 adrenergic receptor was measured by its by its ability to stimulate adenylyl cyclase; assay type: functional
Target sequence in this assay (P13945 whole entry): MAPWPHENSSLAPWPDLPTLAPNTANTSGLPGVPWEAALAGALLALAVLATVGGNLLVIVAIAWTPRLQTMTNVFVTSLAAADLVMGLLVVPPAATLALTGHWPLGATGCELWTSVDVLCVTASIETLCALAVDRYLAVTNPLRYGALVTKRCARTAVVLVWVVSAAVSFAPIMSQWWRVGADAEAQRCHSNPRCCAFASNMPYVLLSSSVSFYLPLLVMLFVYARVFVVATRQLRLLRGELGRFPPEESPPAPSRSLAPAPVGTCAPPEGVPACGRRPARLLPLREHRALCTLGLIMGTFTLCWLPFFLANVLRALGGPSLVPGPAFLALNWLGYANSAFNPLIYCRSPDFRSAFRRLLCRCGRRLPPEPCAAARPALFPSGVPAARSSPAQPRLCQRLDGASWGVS

[3] = molecular target: T1, Beta-2 adrenergic receptor; test: Agonistic activity against the cloned human Beta-2 adrenergic receptor was measured by its by its ability to stimulate adenylyl cyclase; assay type: functional
Target sequence in this assay (P07550 whole entry): as the sequence (P07550 whole entry, looked up) above

[4] = molecular target: T3, Beta-1 adrenergic receptor (Homo sapiens, UniProt P08588); test: Agonistic activity against the cloned human Beta-1 adrenergic receptor was measured by its by its ability to stimulate adenylyl cyclase; assay type: functional
Target sequence in this assay (P08588 whole entry): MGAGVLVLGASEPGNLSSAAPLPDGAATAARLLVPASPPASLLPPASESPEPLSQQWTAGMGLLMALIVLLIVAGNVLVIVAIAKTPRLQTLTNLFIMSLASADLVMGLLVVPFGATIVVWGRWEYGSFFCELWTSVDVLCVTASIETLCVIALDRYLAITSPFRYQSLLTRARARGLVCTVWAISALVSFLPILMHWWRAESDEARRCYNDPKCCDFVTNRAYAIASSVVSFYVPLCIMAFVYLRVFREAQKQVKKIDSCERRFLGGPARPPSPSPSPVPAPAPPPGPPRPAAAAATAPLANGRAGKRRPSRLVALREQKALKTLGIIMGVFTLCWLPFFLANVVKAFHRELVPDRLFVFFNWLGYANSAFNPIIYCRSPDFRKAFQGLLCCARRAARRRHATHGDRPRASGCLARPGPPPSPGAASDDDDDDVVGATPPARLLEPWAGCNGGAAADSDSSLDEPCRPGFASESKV

[5] = molecular target: T3, Beta-1 adrenergic receptor; test: Adenylyl cyclase activation expressed as percent of maximal stimulation with isoproterenol at the cloned human Beta-1 adrenergic receptor at 10 uM; assay type: functional
Target sequence in this assay (P08588 whole entry, looked up): as the sequence (P08588 whole entry) above

[6] = molecular target: T2, Beta-3 adrenergic receptor; test: Inhibitory activity against cloned human Beta-3 adrenergic receptor in the presence of [125I]iodocyanopindolol expressed in CHO cells by receptor binding assay; assay type: cell-based
Target sequence in this assay (P13945 whole entry): as the sequence (P13945 whole entry) above

[7] = molecular target: T1, Beta-2 adrenergic receptor; test: Inhibitory activity against cloned human Beta-2 adrenergic receptor in the presence of [125I]iodocyanopindolol in CHO cells by receptor binding assay; assay type: cell-based
Target sequence in this assay (P07550 whole entry): as the sequence (P07550 whole entry, looked up) above

[8] = Oral bioavailability in dog; assay type: ADME, organism-based, Canis lupus familiaris; conditions: in vivo
Monkey = test: Compound was tested for agonistic activity for glycerolemia in rhesus monkey; assay type: functional; conditions: Cercopithecidae, in Macaca mulatta
[9] = Oral bioavailability in rat; assay type: ADME, organism-based; conditions: in vivo
[10] = molecular target: T2, Beta-3 adrenergic receptor; test: Adenylyl cyclase activation expressed as percent of maximal stimulation with isoproterenol at the cloned human Beta-3 adrenergic receptor at 10 uM; assay type: functional
Target sequence in this assay (P13945 whole entry, looked up): as the sequence (P13945 whole entry) above

[11] = molecular target: T3, Beta-1 adrenergic receptor; test: Inhibitory activity against cloned human Beta-1 adrenergic receptor in the presence of [125I]iodocyanopindolol expressed in CHO cells by receptor binding assay; assay type: cell-based
Target sequence in this assay (P08588 whole entry): as the sequence (P08588 whole entry) above

[12] = Oral bioavailability in dog (p.o. dosing of 0.05 M citric acid/0.05 M hydrochloric acid solution); assay type: ADME, organism-based, Canis lupus familiaris; conditions: in vivo
[13] = Compound was evaluated for the half-life (t 1/2) in hours; assay type: ADME, organism-based, Canis lupus familiaris; conditions: dog, in vivo
[14] = molecular target: T3, Beta-1 adrenergic receptor; test: Inhibitory activity against cloned human Beta-1 adrenergic receptor in the presence of [125I]iodocyanopindolol in CHO cells by receptor binding assay; assay type: cell-based
Target sequence in this assay (P08588 whole entry): as above

[15] = molecular target: T3, Beta-1 adrenergic receptor; test: Adenylyl cyclase activation expressed as percent of maximal stimulation with isoproterenol against the cloned human Beta-1 adrenergic receptor 10 uM; assay type: functional
Target sequence in this assay (P08588 whole entry, looked up): as the sequence (P08588 whole entry) above

[16] = molecular target: T1, Beta-2 adrenergic receptor; test: Adenylyl cyclase activation expressed as percent of maximal stimulation with isoproterenol against the cloned human Beta-2 adrenergic receptor at 10 uM; assay type: functional
Target sequence in this assay (P07550 whole entry, looked up): as the sequence (P07550 whole entry, looked up) above

Compound `O=c1n(CCCC2CCCC2)nnn1-c1ccc(S(=O)(=O)Nc2ccc(CCNC[C@H](O)c3cccnc3)cc2)cc1` has an Activation [1] of 26%, an EC50 [2] of 13 nM and an EC50 [3] of 1800 nM. For the same compound, the EC50 [4] was 1900 nM, the Activation [5] was 33% and the IC50 [6] was 92 nM. For the same compound, the IC50 [7] was 1600 nM, the bioavailability [8] was 27% and the ED50 (Monkey) was 0.21 mg/kg. It also gave a bioavailability [9] of 27%, an Activation [10] of 75% and an IC50 [11] of 3400 nM.
`CCCCCCn1ccn(-c2ccc(S(=O)(=O)Nc3ccc(CCNC[C@H](O)c4cccnc4)cc3)cc2)c1=O` [L-764646] showed a bioavailability [12] of 12% and a half-life [13] of 3.6 h.
In the case of `CCCCCCCCn1nnn(-c2ccc(S(=O)(=O)Nc3ccc(CCNC[C@H](O)c4cccnc4)cc3)cc2)c1=O`, the EC50 [2] is reported as 6.3 nM, the EC50 [4] is reported as 370 nM and the IC50 [7] is reported as 570 nM. The Activation [10] was 57% and the IC50 [14] was 1400 nM.
Compound `CCCCCCn1nnn(-c2ccc(S(=O)(=O)Nc3ccc(CCNC[C@H](O)c4cccnc4)cc3)cc2)c1=O` has an EC50 [2] of 30 nM, an Activation [15] of 19% and an IC50 [7] of 3300 nM. For the same compound, the Activation [10] was 67%, the IC50 [14] was 5000 nM and the Activation [16] was 9%.
For `O=C1N(CCCC2CCCC2)CCN1c1ccc(S(=O)(=O)Nc2ccc(CCNC[C@H](O)c3cccnc3)cc2)cc1` [L-766892], the bioavailability [12] was 17% and the half-life [13] was 3.5 h.
